Test results reported in US8222219B2, “Glucopyranoside compound” (Mitsubishi Tanabe Pharma Corporation, priority 2003, dated 2012).

molecular target: T1, human SGLT2 (Homo sapiens, UniProt P31639); assay: Assay for SGLT2 inhibition (14C-AMG uptake in CHOK1 cells expressing human SGLT2); format: cell-based; conditions: CHOK1 cells expressing human SGLT2; 14C-AMG uptake 0.5 mM, 2 hours at 37° C.; read-out: IC50
T1 construct: expressed in transfected cells; host or cells: CHOK1 (CHO-K1) cells, kept under Geneticin selection
T1 sequence (P31639 1-672): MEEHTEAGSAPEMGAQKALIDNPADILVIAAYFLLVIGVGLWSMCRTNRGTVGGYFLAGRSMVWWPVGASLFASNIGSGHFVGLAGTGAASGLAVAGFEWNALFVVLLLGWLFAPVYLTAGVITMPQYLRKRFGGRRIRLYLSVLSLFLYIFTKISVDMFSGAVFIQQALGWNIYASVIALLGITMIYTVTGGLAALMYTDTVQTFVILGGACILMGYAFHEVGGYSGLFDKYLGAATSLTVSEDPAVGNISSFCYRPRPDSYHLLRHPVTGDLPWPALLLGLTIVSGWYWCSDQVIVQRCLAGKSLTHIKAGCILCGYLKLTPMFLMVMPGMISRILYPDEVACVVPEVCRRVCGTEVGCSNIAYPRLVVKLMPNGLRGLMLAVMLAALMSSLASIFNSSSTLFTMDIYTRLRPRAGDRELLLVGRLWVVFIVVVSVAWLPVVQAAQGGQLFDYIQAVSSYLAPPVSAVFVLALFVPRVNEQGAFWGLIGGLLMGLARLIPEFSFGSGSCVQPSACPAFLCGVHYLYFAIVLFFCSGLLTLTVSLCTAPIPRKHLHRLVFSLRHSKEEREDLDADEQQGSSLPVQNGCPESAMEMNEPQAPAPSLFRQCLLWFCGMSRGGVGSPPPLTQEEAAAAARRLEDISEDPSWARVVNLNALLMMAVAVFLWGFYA
Protocol: 1. Assay for SGLT2 Inhibition
Compounds described in the above examples were used for the SGLT2 inhibition assay.
CHOK1 cells expressing human SGLT2 were seeded in 24-well plates at a density of 400,000 cells/well in F-12 nutrient mixture (Ham's F-12) containing 10% fetal bovine serum, 400 μg/ml Geneticin, 50 units/ml sodium penicillin G (Gibco-BRL) and 50 μg/ml streptomycin sulfate. […] Test compounds were dissolved in DMSO. The final concentration of DMSO was 0.5%. The transport reaction was initiated by addition of 50 μl [^14C]-methyl-α-D-glucopyranoside (^14C-AMG) solution (final concentration, 0.5 mM). After incubation for 2 hours at 37° C., the uptake was stopped by aspiration of the incubation mixture, the cells were washed three times with ice-cold PBS. Then, cells were solubilized with 0.3 N NaOH and aliquots were taken for determination of radioactivity by a liquid scintillation counter. Nonspecific AMG uptake was defined as that which occurred in the presence of 100 μM of phlorizin, a specific inhibitor of sodium-dependent glucose cotransporter. Specific uptake was normalized for the protein concentrations measured by the method of Bradford.

Row | IC50 [nM] | SMILES
1 | 3.4 | Cc1ccc([C@@H]2O[C@H](CO)[C@@H](O)[C@H](O)[C@H]2O)cc1Cc1ccc(-c2ccc(F)nc2)s1 [Example 120, 1-(β-D-glucopyranosyl)-3-(5-(6-fluoro-3-pyridyl)-2-thienylmethyl)-4-methylbenzene]
2 | 1.4 | N#Cc1cccc(-c2ccc(Cc3cc([C@@H]4O[C@H](CO)[C@@H](O)[C@H](O)[C@H]4O)ccc3Cl)s2)c1 [Example 123, 1-(β-D-glucopyranosyl)-4-chloro-3-(5-(3-cyanophenyl)-2-thienylmethyl)benzene]
3 | 1.3 | Cc1ccc([C@@H]2O[C@H](CO)[C@@H](O)[C@H](O)[C@H]2O)cc1Cc1ccc(-c2cccc(C#N)c2)s1 [Example 127, 1-(β-D-glucopyranosyl)-3-(5-(3-cyanophenyl)-2-thienylmethyl)-4-methylbenzene]
4 | 5.9 | CCc1cccc(-c2ccc(Cc3cc([C@@H]4O[C@H](CO)[C@@H](O)[C@H](O)[C@H]4O)ccc3C)s2)c1 [Example 140]
5 | 4.1 | COc1ccc(-c2ccc(Cc3cc([C@@H]4O[C@H](CO)[C@@H](O)[C@H](O)[C@H]4O)ccc3C)s2)cc1 [Example 144]
6 | 2.2 | Cc1ccc([C@@H]2O[C@H](CO)[C@@H](O)[C@H](O)[C@H]2O)cc1Cc1ccc(-c2cccc(F)n2)s1 [Example 146]
7 | 2.8 | Cc1ccc([C@@H]2O[C@H](CO)[C@@H](O)[C@H](O)[C@H]2O)cc1Cc1ccc(-c2ccc(F)s2)s1 [Example 148]
8 | 1.2 | Cc1ccc([C@@H]2O[C@H](CO)[C@@H](O)[C@H](O)[C@H]2O)cc1Cc1ccc(-c2cccs2)s1 [Example 211]
9 | 2.6 | CCOc1cccc(-c2ccc(Cc3cc([C@@H]4O[C@H](CO)[C@@H](O)[C@H](O)[C@H]4O)ccc3C)s2)c1 [Example 212]
10 | 3.3 | OC[C@H]1O[C@@H](c2ccc(Cl)c(Cc3ccc(-c4ccnc(F)c4)s3)c2)[C@H](O)[C@@H](O)[C@@H]1O [Example 216]
11 | 3.6 | Cc1ccc([C@@H]2O[C@H](CO)[C@@H](O)[C@H](O)[C@H]2O)cc1Cc1ccc(-c2ccnc(F)c2)s1 [Example 217]
12 | 6.7 | Cc1ccc([C@@H]2O[C@H](CO)[C@@H](O)[C@H](O)[C@H]2O)cc1Cc1ccc(-c2ccc(C#N)c(F)c2)s1 [Example 219]
13 | 1.8 | Cc1ccc([C@@H]2O[C@H](CO)[C@@H](O)[C@H](O)[C@H]2O)cc1Cc1ccc(-c2cccc(OC(F)F)c2)s1 [Example 222]
14 | 5.9 | Cc1ccc([C@@H]2O[C@H](CO)[C@@H](O)[C@H](O)[C@H]2O)cc1Cc1cc2ccc(OC(F)F)cc2s1 [Example 224]
15 | 1.5 | Cc1ccc([C@@H]2O[C@H](CO)[C@@H](O)[C@H](O)[C@H]2O)cc1Cc1ccc(-c2cccc(C#N)n2)s1 [Example 225]
16 | 3.2 | Cc1ccc([C@@H]2O[C@H](CO)[C@@H](O)[C@H](O)[C@H]2O)cc1Cc1ccc(-n2cccn2)s1 [Example 227]
17 | 3.6 | CCOc1ccc2cc(Cc3cc([C@@H]4O[C@H](CO)[C@@H](O)[C@H](O)[C@H]4O)ccc3C)sc2c1 [Example 228]
18 | 2.7 | COc1ccc2sc(Cc3cc([C@@H]4O[C@H](CO)[C@@H](O)[C@H](O)[C@H]4O)ccc3C)cc2c1 [Example 229]
19 | 4 | Cc1ccc([C@@H]2O[C@H](CO)[C@@H](O)[C@H](O)[C@H]2O)cc1Cc1cc2cc(OCCF)ccc2s1 [Example 230]
20 | 3.5 | CCOc1ccc2sc(Cc3cc([C@@H]4O[C@H](CO)[C@@H](O)[C@H](O)[C@H]4O)ccc3C)cc2c1 [Example 231]

Row | IC50 [nM] | SMILES
21 | 4 | CCOc1ccc(-c2ccc(Cc3cc([C@@H]4O[C@H](CO)[C@@H](O)[C@H](O)[C@H]4O)ccc3C)s2)cc1 [Example 232]
22 | 2.6 | Cc1ccc([C@@H]2O[C@H](CO)[C@@H](O)[C@H](O)[C@H]2O)cc1Cc1cc2ccc(OCCF)cc2s1 [Example 235]
23 | 2.8 | Cc1ccc([C@@H]2O[C@H](CO)[C@@H](O)[C@H](O)[C@H]2O)cc1Cc1ccc(-c2ccc(OC(F)F)cc2)s1 [Example 237]
24 | 1.6 | COc1ccc2cc(Cc3cc([C@@H]4O[C@H](CO)[C@@H](O)[C@H](O)[C@H]4O)ccc3C)sc2c1 [Example 238]
25 | 1.2 | OC[C@H]1O[C@@H](c2ccc(Cl)c(Cc3ccc(-c4ncco4)s3)c2)[C@H](O)[C@@H](O)[C@@H]1O [Example 240]
26 | 1 | Cc1ccc([C@@H]2O[C@H](CO)[C@@H](O)[C@H](O)[C@H]2O)cc1Cc1ccc(-c2ncco2)s1 [Example 241]
27 | 1.2 | Cc1csc(-c2ccc(Cc3cc([C@@H]4O[C@H](CO)[C@@H](O)[C@H](O)[C@H]4O)ccc3Cl)s2)n1 [Example 244]
28 | 6.4 | Cc1cc(-c2ccc(Cc3cc([C@@H]4O[C@H](CO)[C@@H](O)[C@H](O)[C@H]4O)ccc3C)s2)on1 [Example 246]
29 | 5.1 | OC[C@H]1O[C@@H](c2ccc(F)c(Cc3ccc(-c4cccc(F)n4)s3)c2)[C@H](O)[C@@H](O)[C@@H]1O [Example 248]
30 | 4.3 | O=Cc1ccc(-c2ccc(Cc3cc([C@@H]4O[C@H](CO)[C@@H](O)[C@H](O)[C@H]4O)ccc3Cl)s2)cc1 [Example 249, 1-(β-D-Glucopyranosyl)-4-chloro-3-(5-(4-formylphenyl)-2-thienylmethyl)benzene]
31 | 4.2 | COc1c(Cc2ccc(Cl)s2)cc([C@@H]2O[C@H](CO)[C@@H](O)[C@H](O)[C@H]2O)c2ccccc12 [Example 250, 1-(β-D-Glucopyranosyl)-3-(5-chloro-2-thienylmethyl)-4-methoxynaphthalene]
32 | 1.4 | Cc1nc(-c2ccc(Cc3cc([C@@H]4O[C@H](CO)[C@@H](O)[C@H](O)[C@H]4O)ccc3Cl)s2)cs1 [Example 252]
33 | 1.6 | Cc1cc(-c2ccc(Cc3cc([C@@H]4O[C@H](CO)[C@@H](O)[C@H](O)[C@H]4O)ccc3Cl)s2)ccn1 [Example 253]
34 | 6.5 | OC[C@H]1O[C@@H](c2cc(Cc3ccc(-c4cccc(F)n4)s3)c(F)c3ccccc23)[C@H](O)[C@@H](O)[C@@H]1O [Example 255]
35 | 3.1 | OC[C@H]1O[C@@H](c2ccc(Cl)c(Cc3ccc(-c4ncc(F)s4)s3)c2)[C@H](O)[C@@H](O)[C@@H]1O [Example 256]
36 | 1.5 | OCc1ccc(-c2ccc(Cc3cc([C@@H]4O[C@H](CO)[C@@H](O)[C@H](O)[C@H]4O)ccc3Cl)s2)cc1 [Example 264, 1-(β-D-glucopyranosyl)-4-chloro-3-(5-(4-hydroxymethylphenyl)-2-thienylmethyl)benzene]
37 | 3.4 | COc1c(Cc2ccc(-c3ccccc3)s2)cc([C@@H]2O[C@H](CO)[C@@H](O)[C@H](O)[C@H]2O)c2ccccc12 [Example 265, 1-(β-D-glucopyranosyl)-3-(5-phenyl-2-thienylmethyl)-4-methoxynaphthalene]
38 | 3.2 | COc1c(Cc2ccc(-c3ncccn3)s2)cc([C@@H]2O[C@H](CO)[C@@H](O)[C@H](O)[C@H]2O)c2ccccc12 [Example 266]
39 | 1.5 | COc1c(Cc2ccc(-c3cccc(C#N)c3)s2)cc([C@@H]2O[C@H](CO)[C@@H](O)[C@H](O)[C@H]2O)c2ccccc12 [Example 267]
40 | 2.5 | COc1c(Cc2ccc(-c3cccc(F)n3)s2)cc([C@@H]2O[C@H](CO)[C@@H](O)[C@H](O)[C@H]2O)c2ccccc12 [Example 268]

system: Sprague-Dawley (SD) rats; assay: Urinary glucose excretion test in rats; format: in vivo, rat; conditions: male SD rats, 30 mg/kg oral gavage, urine collected for 24 hours; daily amount of glucose excreted per individual
Protocol: 2. Urinary Glucose Excretion Test in Rats Test Compounds:
Compounds described in the above examples were used for the urinary glucose excretion test in rats.
6-week-old male Sprague-Dawley (SD) rats were housed in individual metabolic cages with free access to food and water from 2 days prior to the experiment. On the morning of the experiment, rats were administered vehicle (0.2% carboxymethyl cellulose solution containing 0.2% Tween80) or test compounds (30 mg/kg) by oral gavage at a volume of 10 ml/kg. Then, urine of the rat was collected for 24 hours, and the urine volume was measured. Subsequently, the glucose concentration in urine was quantified using the enzymatic assay kit and the daily amount of glucose excreted in urine per individual was calculated.

Row | SMILES | Urinary glucose
41 | Cc1ccc([C@@H]2O[C@H](CO)[C@@H](O)[C@H](O)[C@H]2O)cc1Cc1ccc(-c2ccc(F)nc2)s1 [Example 120, 1-(β-D-glucopyranosyl)-3-(5-(6-fluoro-3-pyridyl)-2-thienylmethyl)-4-methylbenzene] | A (A≧2000 mg)
42 | N#Cc1cccc(-c2ccc(Cc3cc([C@@H]4O[C@H](CO)[C@@H](O)[C@H](O)[C@H]4O)ccc3Cl)s2)c1 [Example 123, 1-(β-D-glucopyranosyl)-4-chloro-3-(5-(3-cyanophenyl)-2-thienylmethyl)benzene] | A (A≧2000 mg)
43 | Cc1ccc([C@@H]2O[C@H](CO)[C@@H](O)[C@H](O)[C@H]2O)cc1Cc1ccc(-c2cccc(C#N)c2)s1 [Example 127, 1-(β-D-glucopyranosyl)-3-(5-(3-cyanophenyl)-2-thienylmethyl)-4-methylbenzene] | A (A≧2000 mg)
44 | CCc1cccc(-c2ccc(Cc3cc([C@@H]4O[C@H](CO)[C@@H](O)[C@H](O)[C@H]4O)ccc3C)s2)c1 [Example 140] | B (2000 mg>B≧1000 mg)
45 | COc1ccc(-c2ccc(Cc3cc([C@@H]4O[C@H](CO)[C@@H](O)[C@H](O)[C@H]4O)ccc3C)s2)cc1 [Example 144] | B (2000 mg>B≧1000 mg)
46 | Cc1ccc([C@@H]2O[C@H](CO)[C@@H](O)[C@H](O)[C@H]2O)cc1Cc1ccc(-c2cccc(F)n2)s1 [Example 146] | A (A≧2000 mg)
47 | Cc1ccc([C@@H]2O[C@H](CO)[C@@H](O)[C@H](O)[C@H]2O)cc1Cc1ccc(-c2ccc(F)s2)s1 [Example 148] | B (2000 mg>B≧1000 mg)
48 | OC[C@H]1O[C@@H](n2cc(Cc3cc4ccccc4s3)c3ccccc32)[C@H](O)[C@@H](O)[C@@H]1O [Example 195, 1-(β-D-glucopyranosyl)-3-(benzo[b]thiophen-2-ylmethyl)indole] | B (2000 mg>B≧1000 mg)
